What was measured:
[1] = test system: NQO1 positive tumor cell lines MC38, TC-1 and Ag104Ld; format: cell-based
Method: (FIG. 1A) NQO1 positive tumor cell lines MC38, TC-1 and Ag104Ld and NQO1 negative cell lines Panc02 and B16 grown in 48-well plates were treated with β-lap (0-8 μM) for a 3 hr followed by washing and replacing medium. Cell viability was determined by Sulforhodamine B (SRB) Assay 4 days later. […] (FIG. 1C) MC38 cells with CRISPR-based NQO1 Knockout (MC38 NQO1KO #5) planted in 96-well plates were exposed to β-lap for 3 hr and cell survival was assessed 48 hr later. […] (FIG. 1E) MC38 cells were exposed to a lethal dose of β-lap (4 μM) for indicated times, then stained with 7-AAD and Annexin V followed by flow cytometry analysis. […] (FIG. 1H) MC38 and B16 NQO1 #1 cells were exposed to β-lap for a 3 hr. Catalase (1000 U/ml) was added and cell survival was assessed 48 hr later. (FIG. 1I) C57BL/6 mice (n=5/group) were transplanted with MC38 cells and treated with β-lap (0.03 mg, 0.1 mg or 0.3 mg, intratumorally; or 25 mg/kg, i.v.) every other day for four times. […] Tumor growth was monitored twice a week.
(FIG. 8A) NQO1 expression in multiple murine tumor lines was immunoblotted as indicated. […] Drugs were removed and survival assessed 5 days later. (FIG. 8C) Relative H2O2 levels were assessed in various cells treated with β-lap for 3 h at the indicated doses using CellRox-Glo. […] (FIG. 8D) TC-1 cells exposure to β-lap for 12 h, later PARP-1 and Caspase-3 levels were analyzed by western blotting assay. […]
(FIGS. 14A-C) NQO1 cells MC38 (A) and TC-1 (B) and NQO1^− cells B16 (C) were treated for 2 h with various doses of IB-DNQ±DIC (50 μM). Drugs were removed and survival assessed 6 days later. […] (FIGS. 14E-F) Relative NAD^+ (E) or ATP (F) levels were assessed in TC-1 cells exposed to various doses of IB-DNQ for 2 h. […] Comet tail lengths in a.u. were monitored at indicated time; and DSBs quantified by γH2AX foci/nuclei using immunofluorescence at indicated time (FIG. 14H). […]
(FIG. 21A) Viability of murine cell lines following IB-DNQ treatment for 4 h. […] (FIGS. 21D-E) DNA double strand break was assessed via comet assay (FIG. 21D) and γH2AX foci/nuclei immunofluorescence (FIG. 21E). […]

A549 tumor = assay: A549 xenograft in NSG-SGM3 humanized mouse model; format: in vivo, mice; details: Hu-NSG-SGM3 versus NSG-SGM3, β-lap 0.2 mg i.t. four times
Method: FIGS. 2A-F. β-Lap's antitumor effect is CD8^+ T cell dependent. (FIG. 2A) MC38 cells were subcutaneously transplanted into C57BL/6 WT (n=5-6/group) and Rag1 KO mice (n=5/group), respectively. Tumor bearing mice were treated with β-lap (0.3 mg, i.t.) every other day for four times. Numbers of tumor free mice after treatment were shown. (FIG. 2B) MC38 tumor bearing C57BL/6 mice (n=5/group) were treated with β-lap (0.3 mg, i.t.) every other day for four times. For CD8^+ T cell depletion, 200 μg of anti-CD8 antibodies were intraperitoneally injected four times at three days interval during the treatment. […] (FIG. 2D) Naïve (n=5/group) and β-lap cured MC38 tumor free (n=7/group) C57BL/6 mice were rechallenged subcutaneously with 3×10^6 MC38 cells on the opposite site from the primary tumor 30 days after complete rejection, and tumor growth curve was monitored. […] Tumor growth was measured twice a week. Data are shown as mean±SEM from three independent experiments. **P<0.01, ***P<0.001, ****P<0.0001 determined by two-way ANOVA.
For NSG-SGM3 humanized mouse model, four-week-old NSG-SGM3 female mice were irradiated with 100 cGy (X-ray irradiation with X-RAD 320 irradiator) one day prior to human CD34+ cells transfer. […] Tumor volumes were measured at least twice weekly. […]

[2] = Methemoglobinemia and weight loss; format: in vivo; details: MC38 tumor bearing mice, 10 Gy + β-lap

With CC1(C)CCC2=C(O1)c1ccccc1C(=O)C2=O [β-lap, β-lapachone] the “response to 3 h β-lap exposure (cell viability)” value ([1]; β-lap 0-8 μM, 3 hr, SRB 4 days later) was “sensitive”, the cell killing ([1]; β-lap 3 h ± DIC 50 μM, survival 5 days later) was “selectively killed” and the “tumor control in presence of human immune system” value (A549 tumor) was “much better tumor control”. The “methemoglobinemia or weight loss” value [2] was “no significant methemoglobinemia or weight loss”.
